MIC data for two molecules are collected here from US11807640B1 (priority 2023, dated 2023).

The subject of this assay is Mycobacterium tuberculosis (MTB) H37Rv. Put plainly: Resazurin Microplate Assay (REMA), anti-tubercular screening, H37Rv. Type of assay: cell-based. The settings on record: 192 h, Middlebrook 7H9 broth, 37° C., 8 days incubation then resazurin overnight, read-out: MIC (μg/mL) H37Rv. (Alamar Blue is a resazurin reagent that responds to reducing activity.)

≈ marks a conversion by molar mass, not a printed value.

For the molecule `CCOC(=O)c1cc(C(=O)c2ccc(F)cc2)n2ccc(C(=O)OC(C)C)cc12` [KNV-4, 1-Ethyl 7-isopropyl 3-(4-fluorobenzoyl)indolizine-1,7-dicarboxylate], the MIC was 1 µg/mL (≈ 2.52 µM). In the case of `COC(=O)c1c(C(=O)OC)c2cc(C(=O)OC(C)C)ccn2c1C(=O)c1ccc(Br)cc1` [KNV-7, 7-Isopropyl 1,2-dimethyl 3-(4-bromobenzoyl)indolizine-1,2,7-tricarboxylate] it was 1 µg/mL (≈ 1.99 µM).
